Molecules are shown by their SMILES. Where a chain is given by its changes, count along the chain named. Where a name gives a salt, the structure may show the parent alone. Read-outs that look alike come from different tables or passages of the source.

This note sets out measurements from US12661410B2, “Compounds for targeted degradation of RET” (C4 Therapeutics, Inc., priority 2020, dated 2026).

One test concerns the target T1, RET(KD: 658-1114 G810R) (Homo sapiens, UniProt P07949, G810R).
T1 construct: 658-1114; expressed in transfected cells; host or cells: 293T.165 (293T cells, generated in-house)
T1 sequence (P07949 658-1114 G810R): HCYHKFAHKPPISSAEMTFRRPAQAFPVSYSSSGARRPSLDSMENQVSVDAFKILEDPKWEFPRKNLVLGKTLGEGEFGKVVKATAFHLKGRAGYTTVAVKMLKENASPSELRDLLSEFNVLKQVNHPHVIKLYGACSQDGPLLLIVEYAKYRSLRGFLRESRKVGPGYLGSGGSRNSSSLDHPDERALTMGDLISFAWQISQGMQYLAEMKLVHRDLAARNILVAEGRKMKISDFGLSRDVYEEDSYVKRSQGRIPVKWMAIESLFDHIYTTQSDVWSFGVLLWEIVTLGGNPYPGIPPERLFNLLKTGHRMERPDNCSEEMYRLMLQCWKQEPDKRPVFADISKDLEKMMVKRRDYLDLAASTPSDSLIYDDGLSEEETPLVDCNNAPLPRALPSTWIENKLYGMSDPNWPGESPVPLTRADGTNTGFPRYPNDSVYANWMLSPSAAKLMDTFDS
The test can be described thus: HiBiT-Degradation, RET G810R degradation assay (Nano-Glo HiBiT Lytic), 293T.165 cells. In kind it is cell-based. The note with it: for Emax / DC50: 6.0 hours. The gist of the method:
(§1)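 6 h treatment, 293T.144 (WT) / 293T.165 (G810R) cells ectopically expressing HiBiT-fused RET KD; 11-pt half-log dilution, top 10 μM, n=2. Nano-Glo HiBiT lytic detection, luminescence. Output: DC50, Emax (% protein remaining).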

For another test, the target named is T2, RET (658-1114) (Homo sapiens, UniProt P07949).
T2 construct: 658-1114; expressed in transfected cells; host or cells: 293T.144 (293T cells, generated in-house)
T2 sequence (P07949 658-1114): T1 sequence (P07949 658-1114 G810R) with R153G
The test can be described thus: HiBiT-Degradation, RET wild-type degradation assay (Nano-Glo HiBiT Lytic), 293T.144 cells. To be noted: for Emax / DC50: 6.0 hours. The class given is cell-based. The gist of the method: as §1

[1] abbreviates: % remaining protein, read-out: 293T.165 RET(KD: 658-1114 G810R) 6.0 hours (Emax).
The mark [2] stands for this setting: half-maximal degradation concentration, read-out: 293T.165 RET(KD: 658-1114 G810R) 6.0 hours (DC50).
Where [3] appears, read: HiBiT-Degradation, read-out: 293T.165 RET(KD: 658-1114 G810R) 6.0 hours (DC50).
Where [4] appears, read: HiBiT-Degradation, read-out: 293T.144 RET (658-1114) 6.0 hours (DC50).
[5] abbreviates: HiBiT-Degradation, read-out: 293T.144 RET (658-1114) 6.0 hours (Emax).

As to `CCC1(c2ncccn2)CCN(c2ccc(-c3nc(-c4cnn([C@H]5CC[C@H](N6CCC(c7ccc(N[C@H]8CCC(=O)NC8=O)cc7F)CC6)CC5)c4)cn4ncc(C#N)c34)cn2)CC1` (single isomer, unassigned) [Compound 139], the “293T.165 RET(KD: 658-1114 G810R) 6.0 hours (IP) [nM]” value on RET(KD: 658-1114 G810R) is on record as “++++ (<50 nM = ++++)”. Besides, the maximal effect (Emax) at RET(KD: 658-1114 G810R) (setting [1]) was under 30%; on RET (658-1114) (% remaining protein, read-out: 293T.144 RET (658-1114) 6.0 hours (Emax)), under 30%. The 50% degradation concentration (DC50) at RET(KD: 658-1114 G810R) (setting [2]) is under 50 nM; at RET (658-1114) (half-maximal degradation concentration, read-out: 293T.144 RET (658-1114) 6.0 hours (DC50)), under 50 nM. The “293T.144 RET (658-1114) 6.0 hours (IP) [nM]” value at RET (658-1114) is “++++ (<50 nM = ++++)”.
In the case of `N#Cc1cnn2cc(-c3cnn(C4CCN(C(=O)CN5CCC(c6ccc(NC7CCC(=O)NC7=O)cc6)CC5)CC4)c3)cc(-c3ccc(N4CCN(C(=O)Cc5ccc(F)cn5)CC4)nc3)c12` (stereo not drawn) [Compound 15, 6-[1-[1-[2-[4-[4-[(2,6-dioxo-3-piperidyl)amino]phenyl]-1-piperidyl]acetyl]-4-piperidyl]pyrazol-4-yl]-4-[6-[4-[2-(5-fluoro-2-pyridyl)acetyl]piperazin-1-yl]-3-pyridyl]pyrazolo[1,5-a]pyridine-3-carbonitrile formic acid salt], the Emax at RET(KD: 658-1114 G810R) (setting [1]) and on RET (658-1114) (setting [5]) was under 30% in each case. Also, the DC50 at RET(KD: 658-1114 G810R) (setting [2]) was under 100 nM; at RET(KD: 658-1114 G810R) (setting [3]), under 100 nM; at RET (658-1114) (setting [4]) it was under 50 nM. The “293T.165 RET(KD: 658-1114 G810R) 6.0 hours (Emax)” value on RET(KD: 658-1114 G810R) (HiBiT-Degradation) is on record as “++++ (< 30% = ++++)”. Further, the “293T.165 RET(KD: 658-1114 G810R) 6.0 hours (IP) [nM]” value on RET(KD: 658-1114 G810R) (HiBiT-Degradation) is reported as “++++ (< 50 nM = ++++)”. For the same compound, the “293T.144 RET (658-1114) 6.0 hours (IP) [nM]” value on RET (658-1114) (HiBiT-Degradation) is reported as “++++ (< 50 nM = ++++)”.
Consider `N#Cc1cnn2cc(-c3ccc(N4CCN(C(=O)CN5CCC(c6ccc(NC7CCC(=O)NC7=O)cc6F)CC5)CC4)cc3)cc(-c3ccc(N4CCN(Cc5ccccn5)CC4)nc3)c12` (stereo not drawn) [Compound 28, 6-(4-(4-(2-(4-(4-((2,6-Dioxopiperidin-3-yl)amino)-2-fluorophenyl)piperidin-1-yl)acetyl)piperazin-1-yl)phenyl)-4-(6-(4-(pyridin-2-ylmethyl)piperazin-1-yl)pyridin-3-yl)pyrazolo[1,5-a]pyridine-3-carbonitrile], for which the Emax on RET(KD: 658-1114 G810R) (setting [1]) and at RET (658-1114) (setting [5]) was under 30% throughout. The half-maximal degradation concentration (DC50) is under 100 nM on RET(KD: 658-1114 G810R) (setting [2]), under 100 nM on RET(KD: 658-1114 G810R) (setting [3]) and under 50 nM at RET (658-1114) (setting [4]). Besides, the “293T.165 RET(KD: 658-1114 G810R) 6.0 hours (Emax)” value at RET(KD: 658-1114 G810R) (HiBiT-Degradation) is reported as “++++ (< 30% = ++++)”. The “293T.165 RET(KD: 658-1114 G810R) 6.0 hours (IP) [nM]” value at RET(KD: 658-1114 G810R) (HiBiT-Degradation) was “++++ (< 50 nM = ++++)”. Besides, the “293T.144 RET (658-1114) 6.0 hours (IP) [nM]” value at RET (658-1114) (HiBiT-Degradation) is listed as “++++ (< 50 nM = ++++)”.
For the compound `CCC1(C(=O)NC(C)C)CCN(c2ccc(-c3nc(-c4cnn(C5CCN(C(=O)CC6(O)CCN(c7ccc(N[C@H]8CCC(=O)NC8=O)cc7F)CC6)CC5)c4)cn4ncc(C#N)c34)cn2)CC1` (single isomer, unassigned) [Compound 80], the maximal response (Emax) at RET(KD: 658-1114 G810R) (setting [1]) is under 50%; on RET(KD: 658-1114 G810R) (RET G810R, read-out: HiBiT-Degradation 293T.165 RET(KD: 658-1114 G810R) 6.0 hours (Emax)) it was under 50%; on RET (658-1114) (RET wild-type, read-out: HiBiT-Degradation 293T.144 RET (658-1114) 6.0 hours (Emax)) it was under 30%. The DC50 was under 50 nM on RET(KD: 658-1114 G810R) (setting [2]); under 50 nM at RET(KD: 658-1114 G810R) (RET G810R, read-out: HiBiT-Degradation 293T.165 RET(KD: 658-1114 G810R) 6.0 hours (DC50)); under 50 nM at RET (658-1114) (RET wild-type, read-out: HiBiT-Degradation 293T.144 RET (658-1114) 6.0 hours (DC50)). For the same compound, the “HiBiT-Degradation 293T.165 RET(KD: 658-1114 G810R) 6.0 hours (IP) [nM]” value on RET(KD: 658-1114 G810R) (RET G810R) is recorded as “++++ (< 50 nM = ++++)”. The “HiBiT-Degradation 293T.144 RET (658-1114) 6.0 hours (IP) [nM]” value on RET (658-1114) (RET wild-type) was “++++ (< 50 nM = ++++)”.
